Reference: publication PMC10111413 (ACS Infectious Diseases, 2023)
Converted amounts (≈) assume the structure as drawn. Where a SMILES comes first, the peptide text is derived from it. Bridges are numbered along the chain shown (N, C = ends). [ ]: non-standard residue; d: D form. The star is where a group is joined. ξ: configuration not given here. Hexanoyl(4ξ-Me) = CCC(C)CCC(=O)*; dOrn = NCCC[C@@H](N)C(=O)O; Orn = NCCC[C@H](N)C(=O)O

How the values were obtained:
Type in all cases: cell-based
[1] = system: P. aeruginosa PAO1; conditions: PAO1, 18 h
Protocol: (§1) The antibacterial activities of relacidine A (3a) and B (4a), along with diastereomers 3b and 4b–d and relacidamide (5), were assessed using a standard microbroth dilution assay to establish minimum inhibitory concentration (MIC) values against a panel of Gram-negative bacteria (Table 1). The MIC values measured for synthetic relacidine A (3a) and B (4a) agree well with those previously published.[9] […] Relacidine A (3a) and B (4a), as well as relacidamide (5), were further tested against a panel of colistin-resistant A. baumannii clinical isolates, which confirmed their ability to prevent the growth of colistin-resistant isolates (Supplemental Table S2). […] Also of interest was the finding that while relacidine B (4a) induced <1% hemolysis, a substitution of either the L-Ala or L-Ser to D-Ala or D-Ser increased hemolytic activity to 8–12%. […] The greater hydrolytic stability of relacidine B would appear to be attributable to the increased steric bulk of the Ala side chain next to the ester linkage (compared with the methylene of Gly in relacidine A), which may hinder the nucleophilic attack of water at the ester carbonyl.
(§2) Colistin sulfate was purchased from Activate Scientific. Kanamycin monosulfate was purchased from MP Biomedicals. E. coli ATCC 25922, S. aureus USA300 (ATCC BAA1717), and K. pneumoniae ATCC 13883 belong to the American Type Culture Collection (ATCC). P. aeruginosa PAO1 was kindly provided by L.H.C. Quarles Van Ufford of Utrecht University, Utrecht, The Netherlands. E. coli ATCC 25922 MCR-1 was transfected in-house using the pGDP2-MCR1 plasmid kindly provided by Yong-Xin Li of The University of Hong Kong, Hong Kong, China. Sheep blood agar plates (ref. PB5039A) were purchased from Thermo Scientific. Tryptic soy broth (ref. 02-200-500) was purchased from Scharlab. Mueller-Hinton broth (ref. X927.1) was purchased from Carl Roth. Polypropylene 96-wells plates (ref. 3879) were purchased from Corning.
(§3) MICs were determined according to Clinical and Standards Laboratory Institute (CLSI) guidelines. Blood agar plates were inoculated with glycerol stocks of E. coli ATCC 25922, K. pneumoniae ATCC 13883, P. aeruginosa PAO1, and S. aureus USA300. The inoculated agar plates were then incubated for 16 h at 37 °C. Individually grown colonies were subsequently used to inoculate 5 mL aliquots of tryptic soy broth (TSB) that were then incubated at 37 °C with shaking at 220 rpm. E. coli 25922 MCR-1 glycerol stock was used to inoculate 5 mL of TSB supplemented with kanamycin that was then incubated for 16 h at 37 °C with shaking at 220 rpm. The next day, the culture was diluted 100-fold in TSB supplemented with kanamycin and incubated at 37 °C with shaking at 220 rpm. In parallel, the lipopeptide antibiotic DMSO stocks to be assessed were serially diluted with Mueller Hinton broth (MHB) in polypropylene 96-well plates (50 μL in each well). Colistin sulfate stocks were dissolved in water before being diluted with MHB. Aliquots of the inoculated TSB were incubated until an OD600 of around 0.5 was reached. The bacterial suspensions were then diluted with MHB (2 × 10^5 cfu mL^–1) and added to the microplates containing the test compounds (50 μL to each well). The well plates were sealed with an adhesive membrane, and after 18 h of incubation at 37 °C with shaking at 600 rpm, the wells were visually inspected for bacterial growth. MIC values reported are based on three technical replicates and defined as the lowest concentration of the compound that prevented visible growth of bacteria.

[2] = system: S. aureus USA300; conditions: USA300, 18 h
Protocol: as §1, §2, §3

[3] = system: K. pneumoniae ATCC 13883; conditions: ATCC 13883, 18 h
Protocol: as §1, §2, §3

[4] = system: E. coli ATCC 25922; conditions: ATCC 25922, 18 h
Protocol: as §1, §2, §3

[5] = system: E. coli ATCC 25922 mcr-1; conditions: CLSI microbroth dilution, Mueller Hinton broth, 18 h at 37 °C, visual read-out, three technical replicates; mcr-1 colistin resistance plasmid
Protocol: as §1, §2, §3

[6] = system: A. baumannii NCTC 13304; conditions: NCTC 13304, 18 h
Protocol: (§4) VIII. Antimicrobial testing
(§5) Table S2. Minimum inhibitory concentrations (MICs) determined against panel of previously characterized colistin-resistant A. baumannii clinical isolates5
(§6) Strain Relacidine A (3a) Relacidine B (4a) Relacidamide (5) Colistin […]
(§7) aMIC values given in µg/ml.
(§8) All minimum inhibitory concentrations were determined according to Clinical and Standards Laboratory Institute (CLSI) guidelines. Blood agar plates were inoculated from glycerol stocks of the different A. baumannii strains used and then incubated for 16 h at 37 °C . Individually grown colonies were subsequently used to inoculate 5 mL aliquots of TSB that were then incubated at 37 °C. In parallel, the lipopeptide antibiotics DMSO stocks to be assessed were serially diluted with cation-adjusted MHB in polypropylene 96-well plates (50 µL in each well). Colistin sulfate stocks were dissolved in water before being diluted with cation-adjusted MHB. The A. baumannii inoculated TSB aliquots were incubated until an OD600 of around 0.5 was reached. The bacterial suspensions were then diluted with cation-adjusted MHB (2 x 10^5 CFU mL-1) and added to the microplates containing the test compounds (50 µL to each well). The well-plates were sealed with an adhesive membrane and after 18 h of incubation at 37 °C visually inspected for bacterial growth. MIC values reported are based on three technical replicates and defined as the lowest concentration of the compound that prevented visible

[7] = system: A. baumannii BV173; conditions: BV173, 18 h
Protocol: as §4, §5, §6, §7, §8

[8] = system: A. baumannii LAC-4; conditions: LAC-4, 18 h
Protocol: as §4, §5, §6, §7, §8

[9] = system: A. baumannii HUMC1; conditions: HUMC1, 18 h
Protocol: as §4, §5, §6, §7, §8

[10] = system: A. baumannii BV94; conditions: BV94, 18 h
Protocol: as §4, §5, §6, §7, §8

[11] = system: A. baumannii ATCC 17978; conditions: ATCC 17978, 18 h
Protocol: as §4, §5, §6, §7, §8

[12] = system: A. baumannii BV95; conditions: BV95, 18 h
Protocol: as §4, §5, §6, §7, §8

[13] = system: A. baumannii BV172; conditions: BV172, 18 h
Protocol: as §4, §5, §6, §7, §8

[14] = system: A. baumannii NCTC 13420; conditions: NCTC 13420, 18 h
Protocol: as §4, §5, §6, §7, §8

Row | Compound | MIC P. aeruginosa PAO1 [1] [µg/mL] | MIC S. aureus USA300 [2] [µg/mL] | MIC K. pneumoniae ATCC 13883 [3] [µg/mL] | MIC E. coli ATCC 25922 [4] [µg/mL] | MIC E. coli ATCC 25922 mcr-1 [5] [µg/mL] | MIC A. baumannii NCTC 13304 [6] [µg/mL] | MIC A. baumannii BV173 [7] [µg/mL] | MIC A. baumannii LAC-4 [8] [µg/mL] | MIC A. baumannii HUMC1 [9] [µg/mL] | MIC A. baumannii BV94 [10] [µg/mL] | MIC A. baumannii ATCC 17978 [11] [µg/mL] | MIC A. baumannii BV95 [12] [µg/mL] | MIC A. baumannii BV172 [13] [µg/mL] | MIC A. baumannii NCTC 13420 [14] [µg/mL]
1 | CCC(C)CCC(=O)N[C@H](CO)C(=O)N[C@H](Cc1ccc(O)cc1)C(=O)N[C@H](Cc1c[nH]c2ccccc12)C(=O)N[C@H](CCCN)C(=O)N[C@@H](CCCN)C(=O)NCC(=O)N[C@H](CCCN)C(=O)N[C@@H](Cc1c[nH]c2ccccc12)C(=O)N[C@@H]1C(=O)N[C@@H]([C@@H](C)CC)C(=O)NCC(=O)N[C@@H](CO)C(=O)NCC(=O)O[C@@H]1C (stereo partly drawn) [3a, Relacidine A] ({Hexanoyl(4ξ-Me)}-[dS][dY][dW][dOrn][Orn]G[dOrn]WTIGSG; ester 9-C) | 4 (≈ 2.58 µM) | >32 | 4 (≈ 2.58 µM) | 2 (≈ 1.29 µM) | 2 to 4 | 4 (≈ 2.58 µM) | 8 (≈ 5.16 µM) | 4 (≈ 2.58 µM) | 16 (≈ 10.3 µM) | 8 (≈ 5.16 µM) | 8 (≈ 5.16 µM) | 8 (≈ 5.16 µM) | 16 (≈ 10.3 µM) | 8 (≈ 5.16 µM)
2 | CCC(C)CCC(=O)N[C@H](CO)C(=O)N[C@H](Cc1ccc(O)cc1)C(=O)N[C@H](Cc1c[nH]c2ccccc12)C(=O)N[C@H](CCCN)C(=O)N[C@@H](CCCN)C(=O)NCC(=O)N[C@H](CCCN)C(=O)N[C@@H](Cc1c[nH]c2ccccc12)C(=O)N[C@@H]1C(=O)N[C@@H]([C@@H](C)CC)C(=O)NCC(=O)N[C@H](CO)C(=O)NCC(=O)O[C@@H]1C (stereo partly drawn) [3b, D-Ser12-Relacidine A] ({Hexanoyl(4ξ-Me)}-[dS][dY][dW][dOrn][Orn]G[dOrn]WTIG[dS]G; ester 9-C) | 2 (≈ 1.29 µM) | >32 | 4 (≈ 2.58 µM) | 2 to 4 | 4 (≈ 2.58 µM) | – | – | – | – | – | – | – | – | –
3 | CCC(C)CCC(=O)N[C@H](CO)C(=O)N[C@H](Cc1ccc(O)cc1)C(=O)N[C@H](Cc1c[nH]c2ccccc12)C(=O)N[C@H](CCCN)C(=O)N[C@@H](CCCN)C(=O)NCC(=O)N[C@H](CCCN)C(=O)N[C@@H](Cc1c[nH]c2ccccc12)C(=O)N[C@@H]1C(=O)N[C@@H]([C@@H](C)CC)C(=O)NCC(=O)N[C@@H](CO)C(=O)N[C@@H](C)C(=O)O[C@@H]1C (stereo partly drawn) [4a, Relacidine B] ({Hexanoyl(4ξ-Me)}-[dS][dY][dW][dOrn][Orn]G[dOrn]WTIGSA; ester 9-C) | 4 (≈ 2.56 µM) | >32 | 4 (≈ 2.56 µM) | 1 (≈ 0.639 µM) | 2 (≈ 1.28 µM) | 4 (≈ 2.56 µM) | 16 (≈ 10.2 µM) | 8 (≈ 5.12 µM) | 8 (≈ 5.12 µM) | 16 (≈ 10.2 µM) | 4 (≈ 2.56 µM) | 8 (≈ 5.12 µM) | 16 (≈ 10.2 µM) | 16 (≈ 10.2 µM)
4 | CCC(C)CCC(=O)N[C@H](CO)C(=O)N[C@H](Cc1ccc(O)cc1)C(=O)N[C@H](Cc1c[nH]c2ccccc12)C(=O)N[C@H](CCCN)C(=O)N[C@@H](CCCN)C(=O)NCC(=O)N[C@H](CCCN)C(=O)N[C@@H](Cc1c[nH]c2ccccc12)C(=O)N[C@@H]1C(=O)N[C@@H]([C@@H](C)CC)C(=O)NCC(=O)N[C@@H](CO)C(=O)N[C@H](C)C(=O)O[C@@H]1C (stereo partly drawn) [4b, D-Ala13, L-Ser12-Relacidine B] ({Hexanoyl(4ξ-Me)}-[dS][dY][dW][dOrn][Orn]G[dOrn]WTIGS[dA]; ester 9-C) | 4 (≈ 2.56 µM) | >32 | 4 (≈ 2.56 µM) | 2 (≈ 1.28 µM) | 2 to 4 | – | – | – | – | – | – | – | – | –
5 | CCC(C)CCC(=O)N[C@H](CO)C(=O)N[C@H](Cc1ccc(O)cc1)C(=O)N[C@H](Cc1c[nH]c2ccccc12)C(=O)N[C@H](CCCN)C(=O)N[C@@H](CCCN)C(=O)NCC(=O)N[C@H](CCCN)C(=O)N[C@@H](Cc1c[nH]c2ccccc12)C(=O)N[C@@H]1C(=O)N[C@@H]([C@@H](C)CC)C(=O)NCC(=O)N[C@H](CO)C(=O)N[C@@H](C)C(=O)O[C@@H]1C (stereo partly drawn) [4c, L-Ala13, D-Ser12-Relacdine B] ({Hexanoyl(4ξ-Me)}-[dS][dY][dW][dOrn][Orn]G[dOrn]WTIG[dS]A; ester 9-C) | 4 (≈ 2.56 µM) | >32 | 2 to 4 | 1 to 2 | 1 to 2 | – | – | – | – | – | – | – | – | –
6 | CCC(C)CCC(=O)N[C@H](CO)C(=O)N[C@H](Cc1ccc(O)cc1)C(=O)N[C@H](Cc1c[nH]c2ccccc12)C(=O)N[C@H](CCCN)C(=O)N[C@@H](CCCN)C(=O)NCC(=O)N[C@H](CCCN)C(=O)N[C@@H](Cc1c[nH]c2ccccc12)C(=O)N[C@@H]1C(=O)N[C@@H]([C@@H](C)CC)C(=O)NCC(=O)N[C@H](CO)C(=O)N[C@H](C)C(=O)O[C@@H]1C (stereo partly drawn) [4d, D-Ala13, D-Ser12-Relacdine B] ({Hexanoyl(4ξ-Me)}-[dS][dY][dW][dOrn][Orn]G[dOrn]WTIG[dS][dA]; ester 9-C) | 8 (≈ 5.12 µM) | >32 | 2 to 4 | 2 (≈ 1.28 µM) | 2 to 4 | – | – | – | – | – | – | – | – | –
